# Results published in ChEMBL document CHEMBL5226288, “A perspective on medicinal chemistry approaches towards adenomatous polyposis coli and Wnt signal based colorectal cancer inhibitors” (Eur J Med Chem, 2021).
# Non-standard residues stand in square brackets, D forms with d. Residues, ends and D or L forms follow the SMILES beside them. Hica(2S) = CC(C)C[C@H](O)C(=O)O; NMeV = CN[C@H](C(=O)O)C(C)C; NMeA = CN[C@@H](C)C(=O)O; βAla = NCCC(=O)O
# Legend:
# [1] = target: Catenin beta-1/Transcription factor 7 (Homo sapiens, UniProt P35222+P36402); assay: Inhibition of human beta-catenin (142 to 686 residues)/human TCF (7 to 51 residues) protein-protein interaction incubated for 3 hrs by fluorescence polarization assay
# HCT-116 [2] = assay: Antiproliferative activity against human HCT-116 cells assessed as reduction in cell viability incubated for 72 hrs by MTS assay; type: functional, cell-based; conditions: HCT-116, 72 h
# DNA polymerase beta = DNA polymerase beta (Homo sapiens, UniProt P06746); assay: Inhibition of human DNA polymerase beta by fluorescence anisotropy
# HCT-116 [3] = assay: Anticancer activity against human HCT-116 cells assessed as reduction in cell viability incubated for 72 hrs; type: functional, cell-based; conditions: HCT-116, 72 h
# SW480 [4] = assay: Anticancer activity against human SW480 cells assessed as reduction in cell viability incubated for 72 hrs; type: functional, cell-based; conditions: SW480, 72 h
# SW-620 = assay: Anticancer activity against human SW-620 cells assessed as reduction in cell viability incubated for 24 hrs by CCK-8 assay; type: functional, cell-based; conditions: SW-620, 24 h
# KM12 = assay: Anticancer activity against human KM12 cells assessed as reduction in cell viability incubated for 24 hrs by CCK-8 assay; type: functional, cell-based; conditions: KM12, 24 h
# SW480 [5] = assay: Anticancer activity against human SW480 cells assessed as reduction in cell viability incubated for 12 to 24 hrs by MTS assay; type: functional, cell-based
# DLD-1 = assay: Antiproliferative activity against human DLD-1 cells assessed as reduction in cell viability by WST assay; type: functional, cell-based
# SW480 [6] = assay: Anticancer activity against human SW480 cells assessed as reduction in cell viability incubated for 72 hrs by MTT assay; type: functional, cell-based; conditions: SW480, 72 h
# LoVo [7] = assay: Antiproliferative activity against human LoVo cells assessed as reduction in cell viability; type: functional, cell-based
# HCT-116 [8] = assay: Antiproliferative activity against human HCT-116 cells assessed as reduction in cell proliferation incubated for 72 hrs by CellTiter-Glo assay; type: functional, cell-based; conditions: HCT-116, 72 h
# [9] = Inhibition of Wnt1 signalling in human SW480 cells expressing ST-Luc and renilla firefly luciferase incubated for 24 hrs by dual-luciferase reporter assay; type: cell-based; conditions: SW480, 24 h
# [10] = Inhibition of Wnt1 signalling in human HCT-116 cells expressing ST-Luc and renilla firefly luciferase incubated for 24 hrs by dual-luciferase reporter assay; type: cell-based; conditions: HCT-116, 24 h
# SW480 [11] = assay: Anticancer activity against human SW480 cells assessed as cell growth inhibition incubated for 24 hrs by MTS assay; type: functional
# SW480 [12] = assay: Antiproliferative activity against human SW480 cells expressing firefly and renilla luciferase assessed as reduction in cell growth incubated for 3 hrs by TOPFlash luciferase assay; type: functional, cell-based; conditions: SW480, 3 h
# [13] = Inhibition of Wnt signalling in human HEK293T cells expressing Topflash and renilla luciferase reporter gene incubated for 24 hrs by Dual-luciferase assay; type: cell-based; conditions: HEK-293T
# HCT-116 [14] = assay: Anticancer activity against human HCT-116 cells assessed as reduction in cell proliferation incubated for 48 hrs by sulforhodamine B assay; type: functional, cell-based; conditions: HCT-116, 48 h
# SW480 [15] = assay: Anticancer activity against human SW480 cells assessed as reduction in cell proliferation incubated for 48 hrs by sulforhodamine B assay; type: functional, cell-based; conditions: SW480, 48 h
# HT-29 = assay: Antiproliferative activity against human HT-29 cells assessed as reduction in cell viability; type: functional, cell-based
# [16] = Anticancer activity against human colorectal cancer cell lines assessed as reduction in cell viability incubated for 24 to 72 hrs by MTT assay; type: functional, cell-based
# HCT-116 [17] = assay: Antiproliferative activity against human HCT-116 cells assessed as reduction in cell proliferation incubated for 12 to 24 hrs by CCK-8 assay; type: functional, cell-based
# SW480 [18] = assay: Antiproliferative activity against human SW480 cells assessed as reduction in cell proliferation incubated for 12 to 24 hrs by CCK-8 assay; type: functional, cell-based
# SW480 [19] = assay: Anticancer activity against human SW480 cells assessed as reduction in cell viability incubated for 24 hrs by MTT assay; type: functional, cell-based; conditions: SW480, 24 h
# LoVo [20] = assay: Anticancer activity against human LoVo cells assessed as reduction in cell viability incubated for 24 hrs by MTT assay; type: functional, cell-based
# CBP/beta catenin = CBP/beta catenin (Homo sapiens, UniProt P35222+Q92793); assay: Antagonist activity at CBP/beta-catenin (unknown origin) protein-protein interaction; type: protein assay
# SW480 [21] = assay: Antiproliferative activity against human SW480 cells assessed as reduction in cell viability incubated for 24 hrs by CCK-8 assay; type: functional, cell-based; conditions: SW480, 24 h
# SW48 = assay: Anticancer activity against human SW48 cells assessed as cell growth inhibition; type: functional, cell-based
# Chain of Catenin beta-1/Transcription factor 7 (P36402 whole entry, the tested form may be a part): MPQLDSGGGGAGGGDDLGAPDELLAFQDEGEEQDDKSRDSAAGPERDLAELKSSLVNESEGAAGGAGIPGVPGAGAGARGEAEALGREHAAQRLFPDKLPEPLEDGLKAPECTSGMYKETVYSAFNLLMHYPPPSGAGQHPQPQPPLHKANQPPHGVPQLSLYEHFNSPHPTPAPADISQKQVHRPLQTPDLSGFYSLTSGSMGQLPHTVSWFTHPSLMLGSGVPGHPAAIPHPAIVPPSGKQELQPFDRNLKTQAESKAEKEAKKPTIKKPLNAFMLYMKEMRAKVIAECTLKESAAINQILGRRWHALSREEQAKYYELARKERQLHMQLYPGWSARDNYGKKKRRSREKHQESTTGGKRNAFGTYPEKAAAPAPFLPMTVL
# Chain of Catenin beta-1/Transcription factor 7 (P35222 whole entry, the tested form may be a part): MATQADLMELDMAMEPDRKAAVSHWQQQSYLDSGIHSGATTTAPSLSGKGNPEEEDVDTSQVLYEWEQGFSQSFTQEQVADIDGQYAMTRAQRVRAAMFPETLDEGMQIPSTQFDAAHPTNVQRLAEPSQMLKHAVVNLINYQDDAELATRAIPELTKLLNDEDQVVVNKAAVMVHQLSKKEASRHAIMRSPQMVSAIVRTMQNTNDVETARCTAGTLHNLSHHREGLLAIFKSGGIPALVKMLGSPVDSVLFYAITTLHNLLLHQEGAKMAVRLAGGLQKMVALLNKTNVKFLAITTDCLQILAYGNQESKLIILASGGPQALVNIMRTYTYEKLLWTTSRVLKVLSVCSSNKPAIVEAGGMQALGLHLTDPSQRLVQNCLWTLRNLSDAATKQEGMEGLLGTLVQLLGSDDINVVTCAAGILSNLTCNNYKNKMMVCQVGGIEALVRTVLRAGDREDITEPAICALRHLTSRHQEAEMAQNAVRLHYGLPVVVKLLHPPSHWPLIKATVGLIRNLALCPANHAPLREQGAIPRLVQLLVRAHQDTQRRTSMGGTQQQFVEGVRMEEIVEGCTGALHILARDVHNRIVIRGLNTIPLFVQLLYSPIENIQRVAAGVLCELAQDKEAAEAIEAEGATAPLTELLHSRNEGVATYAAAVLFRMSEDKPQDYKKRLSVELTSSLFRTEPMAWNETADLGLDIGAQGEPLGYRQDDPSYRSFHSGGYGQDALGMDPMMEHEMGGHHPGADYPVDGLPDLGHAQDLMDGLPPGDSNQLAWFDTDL
# Chain of CBP/beta catenin (Q92793 whole entry): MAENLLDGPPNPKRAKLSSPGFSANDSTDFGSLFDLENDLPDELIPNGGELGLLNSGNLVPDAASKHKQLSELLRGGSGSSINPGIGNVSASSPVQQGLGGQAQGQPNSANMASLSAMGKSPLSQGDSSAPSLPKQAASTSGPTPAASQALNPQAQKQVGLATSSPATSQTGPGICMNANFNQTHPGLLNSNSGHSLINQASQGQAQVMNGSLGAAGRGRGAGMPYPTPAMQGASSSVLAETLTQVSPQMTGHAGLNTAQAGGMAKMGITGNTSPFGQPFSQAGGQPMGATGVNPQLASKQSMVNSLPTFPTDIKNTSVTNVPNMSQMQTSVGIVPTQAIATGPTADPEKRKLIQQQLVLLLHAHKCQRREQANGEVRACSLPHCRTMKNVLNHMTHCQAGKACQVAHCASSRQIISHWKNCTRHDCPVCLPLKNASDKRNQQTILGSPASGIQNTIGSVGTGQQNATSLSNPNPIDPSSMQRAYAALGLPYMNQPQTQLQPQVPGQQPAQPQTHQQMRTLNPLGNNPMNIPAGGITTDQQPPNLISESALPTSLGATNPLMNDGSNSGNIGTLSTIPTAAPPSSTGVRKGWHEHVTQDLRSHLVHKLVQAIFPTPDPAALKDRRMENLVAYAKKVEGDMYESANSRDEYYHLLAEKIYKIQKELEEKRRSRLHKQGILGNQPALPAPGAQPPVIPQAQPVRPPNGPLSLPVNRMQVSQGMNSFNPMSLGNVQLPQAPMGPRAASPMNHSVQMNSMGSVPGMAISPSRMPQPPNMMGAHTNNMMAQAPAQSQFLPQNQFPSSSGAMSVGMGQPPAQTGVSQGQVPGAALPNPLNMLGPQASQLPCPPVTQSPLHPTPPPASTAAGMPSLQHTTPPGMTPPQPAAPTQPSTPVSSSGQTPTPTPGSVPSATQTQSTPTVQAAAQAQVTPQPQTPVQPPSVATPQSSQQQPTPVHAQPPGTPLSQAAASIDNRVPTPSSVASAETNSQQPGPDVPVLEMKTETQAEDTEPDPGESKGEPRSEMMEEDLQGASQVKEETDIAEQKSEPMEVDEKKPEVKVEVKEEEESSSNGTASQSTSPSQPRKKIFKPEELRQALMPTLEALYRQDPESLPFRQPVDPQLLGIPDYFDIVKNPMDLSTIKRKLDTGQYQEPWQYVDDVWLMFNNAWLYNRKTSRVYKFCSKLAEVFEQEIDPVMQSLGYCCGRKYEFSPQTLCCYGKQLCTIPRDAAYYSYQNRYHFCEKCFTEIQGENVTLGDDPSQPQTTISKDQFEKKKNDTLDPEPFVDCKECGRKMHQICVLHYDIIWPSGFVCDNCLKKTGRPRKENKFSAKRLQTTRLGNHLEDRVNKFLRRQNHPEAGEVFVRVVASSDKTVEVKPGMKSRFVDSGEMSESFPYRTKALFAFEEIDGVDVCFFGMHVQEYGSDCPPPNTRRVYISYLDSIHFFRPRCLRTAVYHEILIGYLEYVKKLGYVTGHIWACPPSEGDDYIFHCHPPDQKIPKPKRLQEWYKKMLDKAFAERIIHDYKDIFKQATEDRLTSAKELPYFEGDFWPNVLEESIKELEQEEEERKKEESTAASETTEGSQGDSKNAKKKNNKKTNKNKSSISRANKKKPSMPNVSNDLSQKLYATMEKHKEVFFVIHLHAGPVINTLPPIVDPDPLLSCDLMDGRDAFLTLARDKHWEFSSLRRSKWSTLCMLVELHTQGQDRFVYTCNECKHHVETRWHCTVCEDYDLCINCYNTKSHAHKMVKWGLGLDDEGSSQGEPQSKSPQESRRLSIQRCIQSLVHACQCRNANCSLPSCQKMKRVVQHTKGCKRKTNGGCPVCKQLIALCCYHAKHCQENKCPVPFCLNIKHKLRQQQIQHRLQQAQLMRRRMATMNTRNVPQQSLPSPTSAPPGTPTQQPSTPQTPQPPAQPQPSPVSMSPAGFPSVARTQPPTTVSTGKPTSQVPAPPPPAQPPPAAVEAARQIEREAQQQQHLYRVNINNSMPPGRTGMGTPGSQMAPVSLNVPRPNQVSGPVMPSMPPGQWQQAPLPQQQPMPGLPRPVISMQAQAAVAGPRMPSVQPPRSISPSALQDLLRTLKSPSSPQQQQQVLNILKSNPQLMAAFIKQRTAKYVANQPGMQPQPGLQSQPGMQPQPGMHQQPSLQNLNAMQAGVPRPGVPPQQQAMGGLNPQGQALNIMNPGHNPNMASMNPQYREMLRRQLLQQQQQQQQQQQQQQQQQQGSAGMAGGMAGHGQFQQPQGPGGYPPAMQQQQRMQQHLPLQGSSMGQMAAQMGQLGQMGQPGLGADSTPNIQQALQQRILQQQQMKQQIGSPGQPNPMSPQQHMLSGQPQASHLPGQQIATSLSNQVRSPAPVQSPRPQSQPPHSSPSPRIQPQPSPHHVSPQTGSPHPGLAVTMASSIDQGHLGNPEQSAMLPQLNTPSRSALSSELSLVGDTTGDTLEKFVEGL
# Chain of CBP/beta catenin (P35222 whole entry): as the sequence (P35222 whole entry, the tested form may be a part) above
smiles,measurement,setting,value
Cn1ncc2cc(CCc3nn[nH]n3)ccc21,IC50,[1],3.14 µM
C=CCN1CC(=O)N2C(CN(Cc3cccc4cn(C)nc34)C[C@@H]2Cc2ccc(OP(=O)(O)O)cc2)N1C(=O)NCc1ccccc1 (stereo partly drawn),IC50,HCT-116 [2],0.91 µM
Cc1ccc(Nc2nc(NS(=O)(=O)c3cc(C)c(C)cc3C)n[nH]2)cc1,IC50,DNA polymerase beta,5 µM
Cc1cc(/C=C/c2ccc3cc(N(C)C)ccc3[n+]2C)c(C)n1-c1ccccc1,EC50,HCT-116 [3],0.043 µM
same,EC50,SW480 [4],0.056 µM
CO[C@@H]1C[C@@H](C[C@H]2CC[C@H](C)[C@H]([C@@H](C)C(=O)O)O2)O[C@]2(O[C@](C)([C@H]3CC[C@@](C)([C@@H]4O[C@@H]([C@H]5O[C@@](O)(CO)[C@H](C)C[C@@H]5C)C[C@@H]4C)O3)C[C@H]2C)[C@@H]1C [NIGERICIN],IC50,SW-620,1.39 µM
same,IC50,KM12,8.48 µM
O=C(Nc1ccc([N+](=O)[O-])cc1Cl)c1cc(Cl)ccc1O [NICLOSAMIDE],IC50,SW480 [5],1 µM
O=C1[C@@H](Cc2ccccc2)N2C(=O)CCN(C(=O)NCc3ccccc3)[C@@H]2CN1Cc1cccc2ccccc12,IC50,DLD-1,21.5 µM
C[C@@H]1O[C@H]2O[C@H]3[C@@H](OC[C@H](O)[C@@H]3O)OC(=O)[C@@H]3CC(C)(C)C[C@H]4C5=CC[C@@H]6[C@@]7(C)C[C@H](O)[C@H](O[C@@H]8O[C@H](CO)[C@@H](O)[C@H](O)[C@H]8O[C@@H]8OC[C@H](OC(=O)C[C@](C)(O)CC(=O)O[C@@H]1[C@@H](O[C@@H]1OC[C@@H](O)[C@H](O)[C@H]1O)[C@H]2O)[C@H](O)[C@H]8O)[C@@](C)(CO)[C@@H]7CC[C@@]6(C)[C@]5(C)CCC34,IC50,SW480 [6],40 µM
COc1cc2c(cc1OC)[C@@]13CCN4CC5=CCO[C@H]6CC(=O)N2[C@H]1[C@H]6[C@H]5C[C@H]43 [BRUCINE],IC50,LoVo [7],18.2 µM
CC(=O)c1cc2c(o1)C(=O)c1ccccc1C2=O [NAPABUCASIN],IC50,HCT-116 [8],0.3 µM
CC[C@]12CCCN3CCc4c(n(c5ccccc45)[C@@H](c4ccc(O)c5c4N[C@H]4CC[C@]6(CC)CCCN7CC[C@]54[C@@H]76)C1)C32 (stereo partly drawn),IC50,[9],4.94 µM
same,IC50,[10],4.47 µM
CN1CC(=O)N2C(CN(Cc3cccc4ccccc34)C[C@@H]2Cc2ccc(O)cc2)N1C(=O)NCc1ccccc1 (stereo partly drawn),GI50,SW480 [11],0.98 µg/mL
O=C(NCc1ccccc1)N1CCC(=O)N2C1CN(Cc1cccc3ccccc13)C[C@@H]2Cc1ccc(O)cc1 (stereo partly drawn),IC50,SW480 [12],8.07 µM
CCn1c2ccccc2c2cc(C(=O)OC(C)C)nc(-c3cccc4ccccc34)c21,IC50,[13],2.8 µM
CC[C@H](C)[C@@H]1NC(=O)[C@@H]2CCCN2C(=O)[C@H](CC(C)C)OC(=O)CCNC(=O)[C@H](C)N(C)C(=O)[C@H](C(C)C)N(C)C1=O [destruxin B] (cyclo([Hica(2S)]PI[NMeV][NMeA][βAla])),IC50,HCT-116 [14],6.3 µM
same,IC50,SW480 [15],6.25 µM
Nc1ccc(O)c(C(=O)O)c1 [MESALAMINE],IC50,HT-29,20000 µM
C[C@H]1[C@H](OC(=O)CCC(=O)O)O[C@@H]2O[C@@]3(C)CC[C@H]4[C@H](C)CC[C@@H]1[C@@]24OO3 [ARTESUNATE],IC50,[16],20.3 µM
O=c1[nH]c2ccccc2n1C1CCN(CCCC(c2ccc(F)cc2)c2ccc(F)cc2)CC1 [PIMOZIDE],IC50,HCT-116 [17],10 µM
same,IC50,SW480 [18],10 µM
C[C@@H]1O[C@@H](O[C@H]2[C@H](O[C@H]3[C@H](O[C@H]4CC[C@@]5(C)C6CC=C7[C@@H]8CC(C)(C)CC[C@]8(C(=O)O)CC[C@]7(C)C6(C)CC[C@H]5C4(C)C)OC[C@H](O)[C@@H]3O)O[C@H](CO)[C@@H](O)[C@@H]2O)[C@H](O)[C@H](O)[C@H]1O (stereo partly drawn),IC50,SW480 [19],1.81 µM
same,IC50,LoVo [20],1.01 µM
C[C@H]1[C@H]2N(C(=O)CN(C)N2C(=O)NCc2ccccc2)[C@@H](Cc2ccc(OP(=O)(O)O)cc2)C(=O)N1Cc1cccc2cccnc12,IC50,CBP/beta catenin,0.15 µM
CC(C)[C@]12O[C@H]1[C@@H]1O[C@]13[C@]1(O[C@H]1C[C@H]1C4=C(CC[C@@]13C)C(=O)OC4)[C@@H]2O [TRIPTOLIDE],IC50,SW480 [21],0.05 µM
COc1cc(OC)c2c(c1)O[C@@]1(c3ccc(Br)cc3)[C@H](c3ccccc3)C[C@@H](O)[C@@]21O,IC50,SW48,0.01 µM
